According to article PMC5908784, “Extracellular loops 2 and 3 of the calcitonin receptor selectively modify agonist binding and efficacy” (Biochemical Pharmacology, 2018):
Where a chain is given by its changes, count along the chain named. Where a SMILES comes first, the peptide text is derived from it. Bridges are numbered along the chain shown (N, C = ends).

Columns and labels:
hCTR V358A = target: T1, hCTR V358A (Homo sapiens, UniProt P30988, V358A); experiment: Heterologous whole cell competition binding; conditions: heterologous competition of 125I-sCT(8-32), whole cells, mean ± S.E.M., SEM
T1 construct: c-Myc (N); expressed in transfected cells
T1 sequence (P30988 25-474 V358A): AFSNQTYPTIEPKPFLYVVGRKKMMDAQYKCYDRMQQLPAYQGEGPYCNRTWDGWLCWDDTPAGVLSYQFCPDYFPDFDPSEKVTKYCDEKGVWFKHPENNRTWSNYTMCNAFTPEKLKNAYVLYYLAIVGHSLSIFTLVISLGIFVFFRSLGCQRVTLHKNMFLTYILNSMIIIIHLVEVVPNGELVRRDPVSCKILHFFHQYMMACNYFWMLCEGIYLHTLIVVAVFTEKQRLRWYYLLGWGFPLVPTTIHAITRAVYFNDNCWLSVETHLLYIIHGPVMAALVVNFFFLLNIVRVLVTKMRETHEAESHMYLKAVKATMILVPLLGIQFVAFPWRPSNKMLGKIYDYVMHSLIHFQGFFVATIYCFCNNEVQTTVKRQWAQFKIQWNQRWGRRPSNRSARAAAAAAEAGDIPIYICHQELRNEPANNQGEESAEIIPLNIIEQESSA
Procedure, shortened: (§1)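 Overnight competition on intact cells; free ligand washed off; gamma counting. pKi via Cheng-Prusoff correction for radioligand occupancy.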

hCTR T295A = target: T2, hCTR T295A (Homo sapiens, UniProt P30988, T295A); experiment: Heterologous whole cell competition binding; conditions: heterologous competition of 125I-sCT(8-32), whole cells, mean ± S.E.M., SEM
T2 construct: c-Myc (N); expressed in transfected cells
T2 sequence (P30988 25-474 T295A): T1 sequence (P30988 25-474 V358A) with T271A, A334V
Procedure, shortened: as §1

hCTR V283A = target: T3, hCTR V283A (Homo sapiens, UniProt P30988, V283A); experiment: Heterologous whole cell competition binding; conditions: heterologous competition of 125I-sCT(8-32), whole cells, mean ± S.E.M., SEM
T3 construct: expressed in transfected cells
T3 sequence (P30988 25-474 V283A): T1 sequence (P30988 25-474 V358A) with V259A, A334V
Procedure, shortened: as §1

hCTR D287A = target: T4, hCTR D287A (Homo sapiens, UniProt P30988, D287A); experiment: IP1 accumulation; format: cell-based; conditions: mean ± S.E.M.
T4 construct: c-Myc (N); expressed in transfected cells
T4 sequence (P30988 25-474 D287A): T1 sequence (P30988 25-474 V358A) with D263A, A334V
Method: Cells (2.5 × 10^4 cells/well) were plated into 96 well trays and cultured overnight. Cells were stimulated with increasing concentration of ligands for 60 min in the presence of LiCl. Samples were lysed and endogenous IP1 was measured using an IP-One HTRF® assay kit (CisBio) as specified by the manufacturer. Data were normalized to the maximal response elicited by 100 μM of ATP.
IC50 and Bmax values were estimated from competitive inhibition of ^125I-sCT(8-32) binding using a 3-parameter logistic equation (log(inhibitor versus response)) in Prism (v7; Graphpad). Data were corrected for radioligand occupancy using the Cheng-Prusoff equation in Prism; as such data are reported as pKi. Emax and EC50 were estimated from concentration-response curves using with a 3-parameter logistic equation in Prism (v7). These values are a composite of functional affinity, efficacy and stimulus response coupling. […] Derived τ values were normalized to experimentally determined levels of cell surface expression to provide a measure of efficacy (τc) that is independent of affinity and altered cell surface receptor expression. pKi, pKA and log τc values for mutant receptors were statistically compared to those of the WT receptor using a one-way analysis of variance (ANOVA) and Dunnett’s post-test. […]

Compound `CSCC[C@H](NC(=O)CNC(=O)[C@H](CO)NC(=O)[C@H](Cc1ccccc1)NC(=O)[C@H](CCCNC(=N)N)NC(=O)[C@H](Cc1c[nH]cn1)NC(=O)[C@H](Cc1ccccc1)NC(=O)[C@H](CC(N)=O)NC(=O)[C@H](CC(N)=O)NC(=O)[C@H](CC(C)C)NC(=O)[C@H](CC(N)=O)NC(=O)[C@H](CCCNC(=N)N)NC(=O)[C@H](Cc1c[nH]c2ccccc12)NC(=O)[C@H](Cc1ccc(O)cc1)NC(=O)[C@H](C)NC(=O)[C@H](CO)NC(=O)[C@H](CC(C)C)NC(=O)[C@@H](NC(=O)[C@@H]1CSSC[C@H](N)C(=O)N[C@@H](CO)C(=O)N[C@@H](CC(N)=O)C(=O)N[C@@H](CC(C)C)C(=O)N[C@@H](CO)C(=O)N[C@@H]([C@@H](C)O)C(=O)N1)C(C)C)C(=O)NCC(=O)N[C@@H](Cc1ccccc1)C(=O)NCC(=O)N1CCC[C@H]1C(=O)N[C@@H](CCC(=O)O)C(=O)N[C@H](C(=O)N1CCC[C@H]1C(N)=O)[C@@H](C)O` [pCT] (H-CSNLSTCVLSAYWRNLNNFHRFSGMGFGPETP-NH2; disulfide 1-7) has a Ki (hCTR V358A) of 14.5 nM, a Ki (hCTR T295A) of 32.4 nM and a Ki (hCTR V283A) of 15.1 nM. The EC50 (hCTR D287A; IP1, CV1-FlpIn cells, 60 min, LiCl) was 3.72 nM and the Emax (hCTR D287A; IP1 maximal response, SEM) was 56 ± 7%.
